Results published in patent US6287827A, “Halo- or hydroxy-substituted nocathiacin antibiotics” (Bristol-Myers Squibb Company, priority 2000, dated 2001).
Values after ≈ are worked out from the molar mass of the structure shown.

How the values were obtained:
Assay in all cases: MIC, conventional serial broth dilution assay in nutrient broth (Difco)
Format in all cases: cell-based
[1] = test system: Enterococcus faecium A24885
[2] = test system: Streptococcus pneumoniae/penicillin resistant A28272
[3] = test system: Enterococcus avium A27456
[4] = test system: Staphylococcus haemolyticus A27298
[5] = test system: Streptococcus pneumoniae A9585
[6] = test system: Staphylococcus aureus/homo methicillin resistant A27223
[7] = test system: Enterococcus faecalis A20688
[8] = test system: Enterococcus faecalis A27519
[9] = test system: Staphylococcus aureus/β-lactamase positive A15090
[10] = test system: Moraxella catarrhalis/β-lactamase positive A22344
[11] = test system: Staphylococcus aureus/QC/ATCC #29213 A24407; details: ATCC29213
[12] = test system: Streptococcus pneumoniae/penicillin intermediate A27881
[13] = test system: Staphylococcus epidermidis A24548
[14] = test system: Moraxella catarrhalis/β-lactamase positive A25409
[15] = test system: Haemophilus influenzae/β-lactamase negative A20191
[16] = test system: Haemophilus influenzae/β-lactamase positive A21515
[17] = test system: Staphylococcus aureus/Thiostrep. Res/Mutant A9497
[18] = test system: Bacillus subtilis/Thiostrep. Res/Mutant A9506A
[19] = test system: Staphylococcus aureus/209P/ATCC #6538P A9497
[20] = test system: Bacillus subtilis/ATCC #6633 A9506A; details: ATCC6633
[21] = Staphylococcus aureus A27223 + 50% calf serum
[22] = Staphylococcus aureus/homo methicillin resistant A27223
[23] = A20688, Enterococcus faecalis A20688
[24] = A20688, Enterococcus faecalis A20688 +50% calf serum
[25] = Staphylococcus aureus A15090 + 50% calf serum
[26] = Staphylococcus aureus/β-lactamase positive A15090

Row | SMILES | MIC [1] [mg/L] | MIC [2] [mg/L] | MIC [4] [mg/L] | MIC [5] [mg/L] | MIC [6, 21] [mg/L] | MIC [6, 22] [mg/L] | MIC [7, 23] [mg/L] | MIC [7, 24] [mg/L] | MIC [9, 25] [mg/L] | MIC [9, 26] [mg/L] | MIC [10] [mg/L] | MIC [11] [mg/L] | MIC [12] [mg/L] | MIC [13] [mg/L] | further results
1 | C=C(NC(=O)c1csc(-c2nc3c(cc2O)-c2nc(cs2)C(=O)NC(C(C)O)C(=O)NC(=C(C)OC)c2nc(cs2)C(=O)NC2c4nc(cs4)C(=O)NC(COC(=O)c4c5c6c(c(F)ccc6n4O)COC(=O)C(OC4CC(C)(O)C(N(C)C)C(C)O4)C2OC5)c2nc-3cs2)n1)C(N)=O (stereo not shown) [5-Fluoronocathiacin, 5-fluoronocathiacin] | 0.25 (≈ 172 nM) | ≤ 0.002 | 0.003 (≈ 2.06 nM) | ≤ 0.002 | 0.003 | 0.003 (≈ 2.06 nM) | 0.25 (≈ 172 nM) | 0.25 (≈ 172 nM) | 0.125 | 0.125 (≈ 85.9 nM) | 0.06 (≈ 41.2 nM) | 0.125 (≈ 85.9 nM) | ≤ 0.002 | 0.007 (≈ 4.81 nM) | MIC [3]: 0.25 mg/L (≈ 172 nM); MIC [8]: 0.25 mg/L (≈ 172 nM); MIC [14]: 0.06 mg/L (≈ 41.2 nM)
2 | C=C(NC(=O)c1csc(-c2nc3c(cc2O)-c2nc(cs2)C(=O)NC(C(C)O)C(=O)NC(=C(C)OC)c2nc(cs2)C(=O)NC2c4nc(cs4)C(=O)NC(COC(=O)c4c5c6c(cc(F)cc6n4O)COC(=O)C(OC4CC(C)(O)C(N(C)C)C(C)O4)C2OC5)c2nc-3cs2)n1)C(N)=O (stereo not shown) [6-Fluoronocathiacin, 6-fluoronocathiacin] | 0.004 (≈ 2.75 nM) | < 0.0005 | 0.004 (≈ 2.75 nM) | < 0.0005 | 0.015 | 0.002 (≈ 1.37 nM) | < 0.001 | 0.015 (≈ 10.3 nM) | 0.015 | 0.002 (≈ 1.37 nM) | 0.25 (≈ 172 nM) | 0.002 (≈ 1.37 nM) | < 0.0005 | 0.004 (≈ 2.75 nM) | MIC [15]: > 16 mg/L; MIC [16]: > 16 mg/L; MIC [17]: 16 mg/L (≈ 11000 nM); MIC [18]: > 32 mg/L; MIC [19]: 0.002 mg/L (≈ 1.37 nM); MIC [20]: 0.002 mg/L (≈ 1.37 nM)
